Test results from EPA's CvTdb concentration-time database (doi:10.1093/toxsci/kfy020).

Assays:
Assay in all cases: concentration in plasma after dosing
[1] = tested on: rat; conditions: dosed: Propamocarb hydrochloride, 5.0000000000 mg/kg, oral, male, Sprague-Dawley
[2] = tested on: rat; conditions: dosed: Propamocarb hydrochloride, 5.0000000000 mg/kg, oral, male, Sprague-Dawley; remark: listed apart in the source
[3] = tested on: rat; conditions: male, Sprague-Dawley
[4] = tested on: rat; conditions: dosed: Propamocarb hydrochloride, 5.0000000000 mg/kg, oral, male, Sprague-Dawley; remark: listed apart in the source
[5] = tested on: rat; conditions: dosed: Propamocarb hydrochloride, 1.0000000000 mg/kg, iv, male, Sprague-Dawley
[6] = tested on: rat; conditions: dosed: Propamocarb hydrochloride, 1.0000000000 mg/kg, iv, male, Sprague-Dawley; remark: listed apart in the source
[7] = tested on: rat; conditions: dosed: Resmethrin, 0.8000000000 mg/kg, iv, male, Sprague-Dawley
[8] = tested on: rat; conditions: dosed: Resmethrin, 4.0000000000 mg/kg, oral, male, Sprague-Dawley
[9] = tested on: rat; conditions: dosed: Resmethrin, 0.8000000000 mg/kg, iv, male, Sprague-Dawley; remark: listed apart in the source
[10] = tested on: rat; conditions: dosed: Resmethrin, 4.0000000000 mg/kg, oral, male, Sprague-Dawley; remark: listed apart in the source
[11] = tested on: rat; conditions: dosed: Resmethrin, 4.0000000000 mg/kg, oral, male, Sprague-Dawley; remark: listed apart in the source
[12] = tested on: rat; conditions: dosed: S-Bioallethrin, 0.8000000000 mg/kg, iv, male, Sprague-Dawley
[13] = tested on: rat; conditions: dosed: S-Bioallethrin, 0.8000000000 mg/kg, iv, male, Sprague-Dawley; remark: listed apart in the source
[14] = tested on: rat; conditions: dosed: S-Bioallethrin, 4.0000000000 mg/kg, oral, male, Sprague-Dawley
[15] = tested on: rat; conditions: dosed: S-Bioallethrin, 0.8000000000 mg/kg, iv, male, Sprague-Dawley; remark: listed apart in the source
[16] = tested on: rat; conditions: dosed: Simazine, 2.0000000000 mg/kg, oral, male, Sprague-Dawley
[17] = tested on: rat; conditions: dosed: Simazine, 0.4000000000 mg/kg, iv, male, Sprague-Dawley
[18] = tested on: rat; conditions: dosed: Simazine, 2.0000000000 mg/kg, oral, male, Sprague-Dawley; remark: listed apart in the source
[19] = tested on: rat; conditions: dosed: Simazine, 2.0000000000 mg/kg, oral, male, Sprague-Dawley; remark: listed apart in the source
[20] = tested on: rat; conditions: dosed: Simazine, 0.4000000000 mg/kg, iv, male, Sprague-Dawley; remark: listed apart in the source
[21] = tested on: rat; conditions: dosed: Simazine, 0.4000000000 mg/kg, iv, male, Sprague-Dawley; remark: listed apart in the source
[22] = tested on: rat; conditions: dosed: Triclosan, 1.0000000000 mg/kg, iv, male, Sprague-Dawley
[23] = tested on: rat; conditions: dosed: Triclosan, 1.0000000000 mg/kg, iv, male, Sprague-Dawley; remark: listed apart in the source
[24] = tested on: rat; conditions: dosed: Triclosan, 1.0000000000 mg/kg, iv, male, Sprague-Dawley; remark: listed apart in the source
[25] = tested on: rat; conditions: dosed: Triclosan, 1.0000000000 mg/kg, iv, male, Sprague-Dawley; remark: listed apart in the source
[26] = tested on: rat; conditions: dosed: Triclosan, 1.0000000000 mg/kg, iv, male, Sprague-Dawley; remark: listed apart in the source

CCCOC(=O)NCCCN(C)C.Cl [Propamocarb hydrochloride]
concentration in plasma [ng/mL]
Conditions	[1]	[2]	[4]	[5]	[6]
0.25 h	2.1	1.1	3.5	62.1	69.3
0.5 h	1.5	0.7	1.7	25.5	35.3
1 h	0.43	0.1	0.4	8.7	11
2 h	–	–	–	0.5	1.7
5 min	–	–	–	103	108

concentration in plasma [ng/mL], [3], dosed: Propamocarb hydrochloride
Conditions	0.25 h	0.5 h	1 h	2 h	5 min
1.0000000000 mg/kg, iv	57.8	26.2	9.6	1	134
5.0000000000 mg/kg, oral	8.1	4.9	1.6	–	–

CC(C)=CC1C(C(=O)OCc2coc(Cc3ccccc3)c2)C1(C)C (configuration not stated) [Resmethrin]
concentration in plasma [ng/mL]
Conditions	0.25 h	0.5 h	1 h	2 h	4 h	5 min	8 h	10 min	12 h
[7]	–	9.1	4.1	1	–	52.7	–	25	–
[8]	17.4	15.8	17.7	10.6	4.2	–	4.6	–	–
[9]	–	12.1	0.7	5.6	–	52.5	–	20.6	–
[10]	7	10.7	39	12.8	2.3	–	4.7	–	1.8
[11]	13.4	11.8	44.1	12.4	5.6	–	4	–	–

concentration in plasma [ng/mL], [3], dosed: Resmethrin
Conditions	0.25 h	0.5 h	1 h	2 h	4 h	5 min	8 h	10 min
0.8000000000 mg/kg, iv	–	13.9	1.6	8.1	–	72.9	–	30.4
4.0000000000 mg/kg, oral	12.6	37.2	32.8	13.5	13.7	–	6.1	–

C=CCC1=C(C)[C@@H](OC(=O)[C@@H]2[C@@H](C=C(C)C)C2(C)C)CC1=O [S-Bioallethrin]
concentration in plasma [ng/mL]
Conditions	0.25 h	0.5 h	1 h	2 h	4 h	5 min	8 h	10 min
[12]	–	24.5	5.2	6.9	2.9	–	1.5	76.7
[13]	–	13.1	–	6.7	1.9	60.4	–	43.5
[14]	2.5	2.2	4.9	–	–	–	–	–
[15]	–	31.3	11	2.5	1.6	–	–	30.2

concentration in plasma [ng/mL], [3], dosed: S-Bioallethrin
Conditions	0.5 h	1 h	2 h	4 h	5 min
0.8000000000 mg/kg, iv	2.7	3	3.4	1.6	19.2
4.0000000000 mg/kg, oral	1.6	6	1.2	–	–

CCNc1nc(Cl)nc(NCC)n1 [Simazine]
concentration in plasma [ng/mL]
Conditions	0.25 h	0.5 h	1 h	2 h	4 h	5 min	10 min
[16]	68.5	23.2	5	1.2	–	–	–
[17]	–	23.2	4.5	–	–	63.7	60.4
[18]	6.9	5	1	4.6	1	–	–
[19]	10.5	3.7	1.3	2.6	1.5	–	–
[20]	–	46.6	9.7	1.1	–	52	148
[21]	–	34.8	5.3	–	–	127	95.5

concentration in plasma [ng/mL], [3], dosed: Simazine
Conditions	0.25 h	0.5 h	1 h	5 min	10 min
0.4000000000 mg/kg, iv	–	43	3.7	91.6	101
2.0000000000 mg/kg, oral	6.9	2.4	–	–	–

Oc1cc(Cl)ccc1Oc1ccc(Cl)cc1Cl [Triclosan]
concentration in plasma [ng/mL]
Conditions	0.5 h	1 h	2 h	5 min	10 min	72 h
[22]	200	–	–	903	367	–
[23]	23.9	6.6	–	72.7	36.7	–
[24]	102	24.9	–	469	374	–
[25]	5.7	10.4	5	1	2.1	2.9
[26]	24.8	6.4	–	270	129	6.2

[3], dosed: Triclosan, 1.0000000000 mg/kg, iv
Conditions	concentration in plasma [ng/mL]
0.5 h	39.6
5 min	474
10 min	211
